Experimental data from the NIST ThermoML archive (doi:10.1016/j.jct.2010.08.020).
Where “and” joins values, the source holds several entries; their conditions need not be identical. Identical values can stand only once. Numbers after ± are expanded uncertainties.

Key:
[1] = Crystal; for vapor or sublimation pressure: Calculated from knudsen effusion weight loss
[2] = molar enthalpy of vaporization or sublimation; details: 298.15 K; Crystal; drop (calvet) calorimetry

Row | SMILES | molar enthalpy of sublimation ([1]; 298.15 K, drop (calvet) calorimetry) [kcal/mol] | vapor or sublimation pressure ([1]; 299.19 K) | vapor or sublimation pressure ([1]; 301.19 K) | vapor or sublimation pressure ([1]; 303.2 K) | vapor or sublimation pressure ([1]; 305.11 K) | vapor or sublimation pressure ([1]; 307.18 K) | vapor or sublimation pressure ([1]; 309.11 K) | vapor or sublimation pressure ([1]; 311.13 K) | vapor or sublimation pressure ([1]; 313.19 K) | vapor or sublimation pressure ([1]; 315.21 K) | vapor or sublimation pressure ([1]; 317.12 K) | molar enthalpy [2] [kcal/mol]
1 | Oc1cc(Br)cc(Br)c1 [3,5-dibromophenol] | 22.5 ± 0.86 | 0.00012 ± 6e-06 kPa and 0.000118 ± 6e-06 kPa and 0.000117 ± 6e-06 kPa | 0.000157 ± 8e-06 kPa and 0.000146 ± 7e-06 kPa and 0.000151 ± 8e-06 kPa | 0.000196 ± 1e-05 kPa and 0.000184 ± 9e-06 kPa and 0.000189 ± 9e-06 kPa | 0.000244 ± 1.2e-05 kPa and 0.000242 ± 1.2e-05 kPa and 0.000241 ± 1.2e-05 kPa | 0.000325 ± 1.6e-05 kPa and 0.000315 ± 1.6e-05 kPa and 0.000317 ± 1.6e-05 kPa | 0.000407 ± 2e-05 kPa and 0.000414 ± 2.1e-05 kPa and 0.000389 ± 1.9e-05 kPa | 0.000502 ± 2.5e-05 kPa and 0.000501 ± 2.5e-05 kPa and 0.000493 ± 2.5e-05 kPa | 0.000663 ± 3.3e-05 kPa and 0.000629 ± 3.2e-05 kPa and 0.00065 ± 3.3e-05 kPa | 0.000813 ± 4.1e-05 kPa and 0.000838 ± 4.2e-05 kPa and 0.000801 ± 4e-05 kPa | 0.001011 ± 0.0001 kPa and 0.001023 ± 0.0001 kPa and 0.000993 ± 5e-05 kPa | –
2 | Oc1ccc(Br)cc1Br [2,4-dibromophenol] | – | – | – | – | – | – | – | – | – | – | – | 19.4 ± 0.717
3 | Oc1c(Br)cccc1Br [2,6-dibromophenol] | – | – | – | – | – | – | – | – | – | – | – | 19.9 ± 0.717
